Experimental findings from patent publication US8912181B2 (Taiho Pharmaceutical Co., Ltd., priority 2011, dated 2014) are described below.

Test [1] addresses human HSP90 alpha protein (N-terminal, amino acids 2 to 236) (Homo sapiens (Human), UniProt P07900). Description: Determination of HSP90-binding activity (AlphaScreen competitive assay with biotinylated geldanamycin). Particulars: inhibition of binding of biotinylated geldanamycin to purified HSP90 N-terminal protein, read-out: HSP-binding activity IC50. On the procedure:
First, a purified HSP90 solution was prepared as follows: a human HSP90 alpha gene (NCBI Reference Sequence accession no. NM-005348) region corresponding to amino acids 2 to 236 of human HSP90 alpha protein (NCBI Reference Sequence accession no. NP-005339; full length: 732 amino acids) was inserted to pET-19b (Novagen; Merck KGaA) to construct a plasmid pET-HS[…] for expression of the HSP90 N-terminal protein having a His-tag at the N-terminus. E. coli (BL21(DE3), Stratagene Corp.) was transformed with pET-HS[…] and then cultured at 37° C. for 4 hours in the presence of 0.5 mM isopropyl-beta-D-thiogalactopyranoside (Sigma-Aldrich Corp.). The collected E. coli was suspended in a lysis buffer (50 mM Tris-HCl (pH 7.5), 200 mM NaCl) and sonicated. The sonicated cell solution was centrifuged (40,000×g, 20 minutes), and the supernatant was used as a crude extract. This crude extract was fractionated using Ni Sepharose High Performance (GE Healthcare Japan Corp.) chromatography and HiLoad 26/60 Superdex 75 pg (GE Healthcare Japan Corp.). Then, a fraction of HSP90 protein concentrates was prepared in a solution containing 50 mM Tris-HCl (pH 7.5) and 20% glycerol as a purified HSP90 solution. The purified HSP90 solution was divided and stored at -80° C. until use. HSP90-binding activity was determined by an AlphaScreen competitive assay system. […] After reaction at room temperature for 2 hours, biotinylated geldanamycin was added thereto at a concentration of 40 nM/well and further reacted for 1 hour. Detection mix (20 mM HEPES-KOH (pH 7.5), 0.5% BSA, 0.04 mg/mL Nickel Chelate Acceptor beads, 0.04 mg/mL Streptavidin-coated Donor beads) (#6760619C, PerkinElmer, Inc.) was added to each well in an amount equal to the amount of the reaction solution and reacted at room temperature for 1 hour in the dark. Then, fluorescence intensity was measured using Multilabel Plate Reader EnVision (PerkinElmer, Inc.). Percent inhibition (%) of the binding of biotinylated geldanamycin by each compound of the present invention was determined according to the formula shown below with the fluorescence signal of no test substance addition group as a control. […] Percent inhibition (%)=(C-T)/C×100, wherein T: Signal of well with test substance addition C: Signal of well without test substance addition.
For orientation: Alpha assays give light when donor and acceptor beads are brought close together.

The next test deals with SK-BR-3 cells. Briefly: Determination of cell growth inhibition (crystal violet staining method). In kind it is cell-based. Particulars: Homo sapiens; breast cancer cells SK-BR-3, 72 hours culture with test substance. On the procedure: Cell growth was assayed by a crystal violet staining method. SK-BR-3 cells (HTB-30) purchased from American Type Culture Collection were inoculated at a concentration of 5,000 cells/well to a 96-well plate (#353075, BD Biosciences). After culture at 37° C. for 24 hours in a 5% CO2 incubator, each test substance was added thereto, and the cells were further cultured for 72 hours. A 25% glutaraldehyde solution (#17025-25, Nacalai Tesque, Inc.) was added thereto at a concentration of 20 μL/well per 200 μL of the medium, and the plate was incubated at room temperature for 20 minutes to fix the cells. The plate was washed with water and dried. Then, a solution containing 0.05% crystal violet (#038-17792, Wako Pure Chemical Industries, Ltd.) and 20% methanol was added thereto at a concentration of 100 μL/well, and the plate was incubated at room temperature for 20 minutes to stain the cells. The plate was washed with water and dried. A mixed solution of 0.05 M NaH2PO4 and ethanol (mixed in equal amounts) was added thereto at a concentration of 100 μL/well. Absorbance was measured at 540 nm using a microplate reader (MTP-450, Corona Electric Co., Ltd.) and used as an index for the number of cells per well. Percent inhibition (%) of cell growth by each compound of the present invention was determined according to the formula shown below with the absorbance of no drug addition group as a control. […] Percent inhibition (%)=(C−T)/C×100, wherein T: Absorbance of well with test substance addition C: Absorbance of well without test substance addition.

Structures are written as SMILES.

By IC50 is commonly meant the point on the concentration scale where inhibition reaches its midpoint.

On to `NC(=O)c1ccc(-c2nccc3c(-c4cnc5ccc(CN6CCOCC6)cc5c4)cccc23)cc1NC1CCC(O)CC1` (stereo not drawn) [Example 49, 2-(4-Hydroxycyclohexylamino)-4-(5-(6-(morpholinomethyl)quinolin-3-yl)isoquinolin-1-yl)benzamide], for which the values for the IC50 (in test [1]; with SK-BR-3 cells) were 1560 nM and 400 nM, respectively.
In the same order, the values of `Cc1ccc2cc(-c3cccc4c(-c5ccc(C(N)=O)c(NC6CCC(O)CC6)c5)nccc34)cnc2c1` (stereo not drawn) [Example 11, 2-(4-Hydroxycyclohexylamino)-4-(5-(7-methylquinolin-3-yl)isoquinolin-1-yl)benzamide] are 480 nM and 110 nM.
On the same counts, the results for `CNc1cncc(-c2cccc3c(-c4ccc(C(N)=O)c(NC5CCC(O)CC5)c4)nccc23)c1` (stereo not drawn) [Example 34, 2-(4-Hydroxycyclohexylamino)-4-(5-(5-(methylamino)pyridin-3-yl)isoquinolin-1-yl)benzamide] are 140 nM and 50 nM.
In the same order, the values of `CCn1cc(-c2cn(-c3cccc4c(-c5ccc(C(N)=O)c(NC(C)(C)C)c5)cc(C(F)(F)F)nc34)cn2)cn1` [Example 90, 2-(Tert-butylamino)-4-(8-(4-(1-ethyl-1H-pyrazol-4-yl)-1H-imidazol-1-yl)-2-(trifluoromethyl)quinolin-4-yl)benzamide] are 580 nM and 30 nM.
Take `NC(=O)c1ccc(-c2cccc3c(-c4cnc5ccccc5c4)ncnc23)cc1NC1CCC(O)CC1` (stereo not drawn) [Comp. Ex. 2, 2-(4-Hydroxycyclohexylamino)-4-(4-(quinolin-3-yl)quinazolin-8-yl)benzamide, reference compound]: the IC50 is more than 100000 nM in test [1] and more than 10000 nM with SK-BR-3 cells.
In the case of `Cn1cc(-c2cn(-c3cccc4c(-c5ccc(C(N)=O)c(Cl)c5)cc(C(F)(F)F)nc34)cn2)cn1` [Example 81, 2-Chloro-4-(8-(4-(1-methyl-1H-pyrazol-4-yl)-1H-imidazol-1-yl)-2-(trifluoromethyl)quinolin-4-yl)benzamide], the IC50 in test [1] was 870 nM; in the test on SK-BR-3 cells, 760 nM.
Regarding `Cc1cc(C(N)=O)ccc1-c1cc(C(F)(F)F)nc2c(-n3cnc(-c4cnn(C(F)F)c4)c3)cccc12` [Example 94, 4-(8-(4-(1-Difluoromethyl-1H-pyrazol-4-yl)-1H-imidazol-1-yl)-2-(trifluoromethyl)quinolin-4-yl)-3-methylbenzamide], the 50% inhibitory concentration (IC50) in test [1] came to 500 nM; in the test with SK-BR-3 cells, 110 nM.
`CC(C)(C)Nc1cc(-c2cc(C(F)(F)F)nc3c(-n4cnc(-c5cnn(C(F)F)c5)c4)cccc23)ccc1C(N)=O` [Example 92, 2-(Tert-butylamino)-4-(8-(4-(1-difluoromethyl-1H-pyrazol-4-yl)-1H-imidazol-1-yl)-2-(trifluoromethyl)quinolin-4-yl)benzamide]: the IC50 amounted to 790 nM in test [1] and 20 nM in the test with SK-BR-3 cells.
On the same counts, the results for `NC(=O)c1ccc(-c2ccnc3c(-c4cnc5ccccc5c4)cccc23)cc1NC1CCC(O)CC1` (stereo not drawn) [Example 117, 4-(3,8′-Biquinolin-4′-yl)-2-(4-hydroxycyclohexylamino)benzamide] are 290 nM and 50 nM.
In the same order, the values of `CN(CCO)CNC(=O)c1ccc(-c2nccc3c(-c4cnc5ccccc5c4)cccc23)cc1NC1CCC(O)CC1` (stereo not drawn) [Example 37, 2-(4-Hydroxycyclohexylamino)-N-(((2-hydroxyethyl)(methyl)amino)methyl)-4-(5-(quinolin-3-yl)isoquinolin-1-yl)benzamide] are 370 nM and 60 nM.
In the same order, the values of `CC(C)OCCNc1cc(-c2cc(C(F)(F)F)nc3c(-c4cnc5ccccc5c4)cccc23)ccc1C(N)=O` [Example 111, 2-(2-Isopropoxyethylamino)-4-(2′-(trifluoromethyl)-3,8′-biquinolin-4′-yl)benzamide] are 840 nM and 60 nM.
With `NC(=O)c1ccc(-c2nccc3c(-c4cccnc4)cccc23)cc1NC1CCC(O)CC1` (stereo not drawn) [Example 15, 2-(4-Hydroxycyclohexylamino)-4-(5-(pyridin-3-yl)isoquinolin-1-yl)benzamide], the IC50 in test [1] turned out to be 140 nM; in the test on SK-BR-3 cells it was 210 nM.
Take `Cc1cc2c(-n3cnc(-c4cnn(C)c4)c3)cccc2c(-c2ccc(C(N)=O)c(N)c2)n1` [Example 71, 2-Amino-4-(3-methyl-5-(4-(1-methyl-1H-pyrazol-4-yl)-1H-imidazol-1-yl)isoquinolin-1-yl)benzamide]: the values for the IC50 (in test [1]; in the test on SK-BR-3 cells) were 170 nM and 210 nM, respectively.
Take `Cc1cc(-c2ccc(C(N)=O)c(NC(C)(C)C)c2)c2cccc(-n3cnc(-c4cnn(C)c4)c3)c2n1` [Example 97, 2-(Tert-butylamino)-4-(2-methyl-8-(4-(1-methyl-1H-pyrazol-4-yl)-1H-imidazol-1-yl)quinolin-4-yl)benzamide]: the IC50 in test [1] came to 160 nM; with SK-BR-3 cells it was 20 nM.
As for `Cn1cc(-c2cn(-c3cccc4c(-c5ccc(C(N)=O)c(N)c5)cc(C(F)(F)F)nc34)cn2)cn1` [Example 69, 2-Amino-4-(8-(4-(1-methyl-1H-pyrazol-4-yl)-1H-imidazol-1-yl)-2-(trifluoromethyl)quinolin-4-yl)benzamide], the results for the IC50 (in test [1]; with SK-BR-3 cells) were 150 nM and 20 nM, respectively.
On the same counts, the results for `CC(C)Nc1cc(-c2nccc3c(-n4cnc(-c5cnn(C)c5)c4)cccc23)ccc1C(N)=O` [Example 61, 2-(Isopropylamino)-4-(5-(4-(1-methyl-1H-pyrazol-4-yl)-1H-imidazol-1-yl)isoquinolin-1-yl)benzamide] are 190 nM and 70 nM.
On the same counts, the results for `Cn1cc(-c2cn(-c3cccc4c(-c5ccc(C(N)=O)c(NC(C)(C)C)c5)cc(C5CC5)nc34)cn2)cn1` [Example 105, 2-(Tert-butylamino)-4-(2-cyclopropyl-8-(4-(1-methyl-1H-pyrazol-4-yl)-1H-imidazol-1-yl)quinolin-4-yl)benzamide] are 400 nM and 20 nM.
Turning to `CC(C)OCCNc1cc(-c2cc(C(F)(F)F)nc3c(-n4cnc(-c5ccccc5)c4)cccc23)ccc1C(N)=O` [Example 109, 2-(Isopropoxyethylamino)-4-(8-(4-phenyl-1H-imidazol-1-yl)-2-(trifluoromethyl)quinolin-4-yl)benzamide], the IC50 in test [1] worked out at 4360 nM; in the test with SK-BR-3 cells, 210 nM.
In the same order, the values of `CCNc1cc(-c2nccc3c(-n4cnc(-c5cnn(C)c5)c4)ccnc23)ccc1C(N)=O` [Example 72, 2-Ethylamino-4-(4-(4-(1-methyl-1H-pyrazol-4-yl)-1H-imidazol-1-yl)1,7-naphthyridin-8-yl)benzamide] are 740 nM and 1740 nM.
On the same counts, the results for `CCc1cc(-c2ccc(C(N)=O)c(N)c2)c2cccc(-n3cnc(-c4ccc(C)nc4)c3)c2n1` [Example 124, 2-Amino-4-(2-ethyl-8-(4-(6-methylpyridin-3-yl)-1H-imidazol-1-yl)quinolin-4-yl)benzamide] are 130 nM and 20 nM.
On the same counts, the results for `Cn1cc(-c2cn(-c3cccc4c(-c5ccc(C(N)=O)cc5N)cc(C(F)(F)F)nc34)cn2)cn1` [Example 73, 3-Amino-4-(8-(4-(1-methyl-1H-pyrazol-4-yl)-1H-imidazol-1-yl)-2-(trifluoromethyl)quinolin-4-yl)benzamide] are 190 nM and 70 nM.
